Data taken from the supplement of paper PMC10307832.

How the values were obtained:
Experiment in all cases: relative viability (nuclei count vs DMSO), 5 days (fraction); higher = more cells survive
[1] = compound: CCOc1cc2ncc(C#N)c(Nc3ccc(OCc4ccccn4)c(Cl)c3)c2cc1NC(=O)/C=C/CN(C)C [Neratinib]
Outline: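 Following overnight incubation at 37 °C, lung cancer cell lines in 1536-well plates were pinned with five library-drug doses (not always all listed) in √10 steps on vehicle-anchored plates. The cells then spent 5 days without medium change before a combined fix, permeabilisation and Hoechst stain, 4× imaging and MetaXpress nuclear counts. Viability is the treated-to-vehicle ratio of nuclei, taken as the median across plates. Only plates with control CV below 25% and at least one doubling passed.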

[2] = compound: CCOc1cc2ncc(C#N)c(Nc3ccc(OCc4ccccn4)c(Cl)c3)c2cc1NC(=O)/C=C/CN(C)C [Neratinib] + COc1cccc2cc(-c3nc([C@H]4CC[C@H](C(=O)O)CC4)n4ncnc(N)c34)[nH]c12 [OSI-027] (partner 0.5 µM)
Outline: (§1)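 Dosing by pin tool came one day after lung cancer cell lines were seeded in 1536-well plates, using either one drug or a fixed anchor-drug dose plus five library-drug doses (not always all listed) in √10 steps. After 5 days, nuclei were counted on 4× images. Relative viability is treated-well nuclei count divided by vehicle-well nuclei count, and values are medians of duplicate plates.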

[3] = compound: CCOc1cc2ncc(C#N)c(Nc3ccc(OCc4ccccn4)c(Cl)c3)c2cc1NC(=O)/C=C/CN(C)C [Neratinib] + CC(=O)c1c(C)c2cnc(Nc3ccc(N4CCNCC4)cn3)nc2n(C2CCCC2)c1=O [Palbociclib] (partner 0.5 µM)
Outline: as §1

[4] = compound: CCOc1cc2ncc(C#N)c(Nc3ccc(OCc4ccccn4)c(Cl)c3)c2cc1NC(=O)/C=C/CN(C)C [Neratinib] + COc1cc2c(Oc3ccc(NC(=O)C4(C(=O)Nc5ccc(F)cc5)CC4)cc3F)ccnc2cc1OCCCN1CCOCC1 [Foretinib] (partner 0.25 µM)
Outline: as §1

Cell Line	relative viability ([1]; 0.01 µM)	relative viability ([1]; 0.03162 µM)	relative viability ([1]; 0.1 µM)	relative viability ([1]; 0.3162 µM)	relative viability ([1]; 1 µM)	relative viability ([2]; first compound 0.01 µM)	relative viability ([2]; first compound 0.03162 µM)	relative viability ([2]; first compound 0.3162 µM)	relative viability ([2]; first compound 1 µM)	relative viability ([3]; first compound 0.01 µM)	relative viability ([3]; first compound 0.03162 µM)	relative viability ([3]; first compound 0.1 µM)	relative viability ([3]; first compound 0.3162 µM)	relative viability ([3]; first compound 1 µM)	relative viability ([4]; first compound 0.01 µM)	relative viability ([4]; first compound 0.03162 µM)	relative viability ([4]; first compound 0.1 µM)	relative viability ([4]; first compound 0.3162 µM)	relative viability ([4]; first compound 1 µM)	relative viability ([2]; first compound 0.1 µM)
NCI-H1734	1.05	1.05	0.914	0.929	0.734	0.659	0.638	0.552	0.331	0.409	0.395	0.241	0.328	0.28	0.953	0.887	0.683	0.775	0.469	
NCI-H1755		1.01	0.858	1.02	1.05	0.795	0.785	0.695	0.528	0.457	0.463	0.33	0.456	0.432	0.876	0.988		0.972	0.745	0.721
NCI-H1793	1.11	1	0.682	0.749	0.527	0.309	0.26	0.167	0.145	0.257	0.276	0.239	0.241	0.23	0.723		0.408	0.338	0.32	0.237
NCI-H1915	1.07	1.03	0.972	0.916	1.05	0.697	0.67	0.595	0.424	0.538	0.537	0.504	0.528	0.414	1.08	1.08	1.08	1.05	0.709	0.294
NCI-H1944	1.18	0.977	0.865	0.767	0.569	0.467	0.419	0.286	0.289	0.365	0.32	0.264	0.241	0.247	0.878	0.929		0.599	0.327	0.337
NCI-H1975	1.07	1.1	0.905	0.58	0.244	0.826	0.921	0.25	0.177	0.658	0.739	0.522	0.337	0.176		1.02	0.972	0.421	0.174	0.629
NCI-H1993	1.03	0.837	0.719	0.685	0.731	0.387	0.576	0.643	0.674	0.768	0.578	0.522	0.466	0.568	0.82	0.662	0.6	0.567	0.657	0.655
NCI-H2009	1.01	1.05	0.989	0.927	0.96	0.677	0.762	0.467	0.304	0.176	0.266	0.21	0.243	0.208	1.2	1.29	1.17	1.25	1.05	0.59
NCI-H2023	0.997	0.824		0.881	0.707	0.432	0.493	0.331	0.179	0.395	0.363	0.308	0.322	0.348	0.797	0.803	0.415	0.454	0.257	0.31
NCI-H2085	0.977	1.01	0.871	0.891	0.814	0.736	0.882	0.398	0.266	0.468	0.456	0.467	0.419	0.382	0.801	1.08	0.761	0.64	0.31	0.647
NCI-H2087	1.15	0.894	0.829	0.883	0.644		0.634	0.335	0.267	0.212	0.271	0.217	0.182	0.14	1.36	1.24	1.05	0.742	0.536	0.471
NCI-H2126	1.03	0.998	0.904	0.907	0.553	0.697	0.688	0.649	0.447	0.33	0.347		0.344	0.309	1.37	1.36	1.13	1.09	0.536	0.69
NCI-H2170	0.995	0.994	0.62	0.26	0.24	0.761	0.771	0.22	0.239	0.361	0.352	0.199	0.144	0.151	1.04	1.07	0.909	0.303	0.27	0.287
NCI-H2228		1.21	0.973	0.858	0.223	0.536		0.526	0.142	0.666	0.95	0.765	0.655	0.169		0.95	0.715	0.646	0.204	0.662
NCI-H2347	1.07	1.08	0.904	1.08		0.453	0.573	0.434	0.32	0.401	0.41	0.341	0.494	0.479	0.686	0.909		0.586	0.711	
NCI-H2405	1.06	1.07	0.989	0.98	0.739	0.666	0.653	0.69	0.496	0.56	0.579	0.534	0.567	0.419	1.06	1.08	0.922	1.04	0.57	0.566
